Laboratory results from US8999892B2, “Use of S-abscisic acid for improving fruit set and producing parthenocarpic fruits and as a growth inhibitor” (Globachem, priority 2004, dated 2015).

What was measured:
Type in all cases: in vivo
[1] = system: apple trees, variety Jonagored; assay: Promoting fruit set in pome fruit, orchard spray trial 2003; conditions: 2 g/ha sprayed three weeks after full flower
Source text: Experimental period: 2003 Pome fruit crops treated: apple trees, variety Jonagored. The fruit orchard was sprayed on 9 May, that is, three weeks after full flower (18 April). S-ABA was applied in a dose of 2 g/ha. For the control experiment, the same formulation, but without S-ABA, was used. The number of fruit trees per plot was 10.

[2] = system: apple trees, variety Boskoop; assay: Promoting fruit set, production of parthenocarpic fruits and inhibition of growth in pome fruit, orchard spray trial 2004; conditions: for Number of apples/tree / Number of unclosed buds/tree (crown tip excluded): evaluation 6 Jul. 2004
Source text: Experimental period: 2004 Pome fruit crops treated: apple trees, variety Boskoop The fruit orchard was sprayed on 23 April, that is, during full flower. A further plot was spayed on 20 May 2004. S-ABA was applied in a dose of 2 g/ha. For the control experiment, the same formulation, but with-out S-ABA, was used. The number of fruit trees per plot was 40. The evaluation on 6 Jul. 2004 provided the following results: The buds or shoots in the crown tip of the trees were not taken into account because increased shoot growth frequently occurs in these places due to intensive cutting measures. In general, the growth of shoots in the crown tip is stronger than in the other regions of the tree crown.

[3] = system: cherry trees, variety Summit; assay: Improvement of fruit set in stone fruit, orchard spray trial 2004; conditions: 2 g/ha sprayed one week after flowering
Source text: Experimental period: 2004 Stone fruit crops treated: cherry trees, variety Summit The fruit orchard was sprayed with S-ABA one week after flowering; the dose was 2 g/ha. For the control experiment, the same formulation, but without S-ABA, was used. The number of fruit trees per plot was 5.

[4] = 2 g/ha sprayed 23 April (full flower)

In the case of `CC(C=C[C@@]1(O)C(C)=CC(=O)CC1(C)C)=CC(=O)O` (stereo in doubt) [S-ABA, (S)-5-(1-hydroxy-2,6,6-trimethyl-4-oxo-2-cyclohexenyl)-3-methyl-cis/trans-2,4-pentanedienoic acid], the “Apples in grade 75-85 mm” value [1] is reported as 15.54 kg, the “Apples in grade A2++ (75-85 mm)” value [1] is reported as 9.62 kg and the “Increase in number of apples per tree as compared to the control” value [1] is reported as 17%. The “Increase in yield (in kg) as compared to the control” value [1] was 8%, the “Increase in yield in the high grades” value [1] was 84% and the “Increase in yield of grade A2++ (optimal fruit color)” value [1] was “near doubling of the yield”. It also gave a Number of apples/tree [1] of 129, a Yield ([1]; 10 trees per plot) of 33.37 kg/tree and a Number of apples/tree ([2]; 2 g/ha sprayed 20 May) of 42. For the same molecule, the “Number of unclosed buds/tree (crown tip excluded)” value ([2]; 2 g/ha sprayed 20 May) was 0, the Number of apples/tree [2, 4] was 35.4 and the “Number of unclosed buds/tree (crown tip excluded)” value [2, 4] was 1.66. For the same molecule, the “Increase in total number of apples per tree as compared with the control” value ([2]; plot treated 20 May) was “approximately 21%”, the “Closure of buds (inhibition of vegetative growth)” value ([2]; plots treated with S-ABA, independently of the time of treatment) was “almost all buds were closed” and the “Effect on fruit set of treatment during flowering” value ([2]; treatment during flowering (23 April)) was “not adversely affected”. For the same molecule, the “Formation of parthenocarpic fruits” value ([2]; trees treated with 2 g/ha) was “parthenocarpic, pipless fruits were formed”, the “Formation of parthenocarpic fruits” value [3] was “Parthenocarpic fruits were not observed” and the “Increase in number of fruits compared to the control plot” value [3] was “near doubling of the number of fruits”. The Weight per cherry [3] was “not significantly influenced” and the Yield ([3]; 5 trees per plot) was 25 kg/tree.
